Laboratory results published in patent publication US20120197004A1, “NOVEL ANTI-MICROBIAL PEPTIDOMIMETIC COMPOUNDS AND METHODS TO CALCULATE ANTI-MICROBIAL ACTIVITY” (priority 2006, published 2012).
Converted amounts (≈) assume the structure as drawn. Read-outs that look alike come from different tables or passages of the source. Where a SMILES comes first, the peptide text is derived from it. [ ]: non-standard residue; d: D form. ξ: configuration not given here. Oic = O=C(O)[C@@H]1C[C@@H]2CCCC[C@@H]2N1; Tic = O=C(O)[C@@H]1Cc2ccccc2CN1; ξTic = O=C(O)C1Cc2ccccc2CN1; ξOic = O=C(O)C1CC2CCCCC2N1

How the values were obtained:
[1] = Maximum tolerated dose in mouse model; type: in vivo; settings: IP, 1 mg/kg, dosed daily day 1-6
Procedure: Maximum Tolerated Dose: Six compounds were evaluated in an in vivo mouse model to determine the maximum tolerated dose for each compound by BIOCON, Inc. using the following protocol. For each compound 3 dose concentrations (1/5/25 mg/kg or 5/25/125 mg/kg) were administered IP, 1-2 times per day as split doses. Day 0 weigh the animals, day 1-6 dose daily and observe animals, day 7 weigh, euthanasia followed by necrotize to examine abdominal cavity.

[2] = system: Salmonella typhimurium (ATCC 13311); settings: for MIC Salmonella typhimurium: ATCC 13311; for p(MIC) Salmonella typhimurium: -log(MIC)
[3] = system: Staphylococcus aureus Methicillin/Gentamicin/Tetracycline Resistant (ATCC 33592); settings: for MIC Staphylococcus aureus ME/GM/TC resistant: Minimal Inhibitory Concentration, tested at 100-0.1 in 1% DMSO; for Minimum Inhibitory Concentration Staphylococcus aureus ME/GM/TC resistant: in vitro MIC, tested at 100, 30, 10, 3, 1, 0.3 and 0.1 μM in 1% DMSO; for p(MIC) Staphylococcus aureus ME/GM/TC resistant: -log(MIC); for Actual Bioactivity: p(MIC) used in Staphylococcus aureus QSAR model
[4] = system: Mycobacterium ranae (ATCC 110)
[5] = system: Bacillus subtillis (ATCC 43223); settings: for MIC Bacillus Subtillis: ATCC 43223; for p(MIC) Bacillus Subtillis: -log(MIC)
red blood cells [6] = system: red blood cells
in vitro [7] = settings: human, microsomes, pH 7.4
in vitro [8] = settings: monkey, microsomes, pH 7.4
in vitro [9] = settings: dog, microsomes, pH 7.4
in vitro [10] = settings: rat, microsomes, pH 7.4
in vitro [11] = settings: mouse, microsomes, pH 7.4
[12] = system: Plasmodium falciparum W2 (CDC Indochina III chloroquine, quinine, pyrimethamine and sulfadoxine-resistant)
[13] = system: Plasmodium falciparum D6 (CDC Sierra Leone, mefloquine resistant)
red blood cells [14] = experiment: Hemolytic studies; settings: concentration not given

| SMILES | Maximum Tolerated Dose/Toxicity 1 mg/kg [1] | MIC Salmonella typhimurium [2] [mM] | MIC Staphylococcus aureus ME/GM/TC resistant [3] [mM] | Minimum Inhibitory Concentration Staphylococcus aureus ME/GM/TC resistant [3] [µM] | MIC Mycobacterium ranae ([4]; ATCC 110) [mM] | MIC Bacillus Subtillis [5] [mM] | % hemolysis 100/25 μM (first value) (red blood cells [6]) [%/] | % hemolysis 100/25 μM (second value) (red blood cells [6]) [%] | remaining at 0.25 h, 1 μM (in vitro [7]) [%] | remaining at 0.25 h, 1 μM (in vitro [8]) [%] | remaining at 0.5 h, 1 μM (in vitro [8]) [%] | remaining at 0.5 h, 1 μM (in vitro [9]) [%] | remaining at 1 h, 1 μM (in vitro [9]) [%] | remaining at 0.25 h, 1 μM (in vitro [10]) [%] | remaining at 0.5 h, 1 μM (in vitro [10]) [%] | IC50 * W2 [12] [mg/L] | IC50 * D6 [13] [mg/L] | p(MIC) Salmonella typhimurium [2] | p(MIC) Staphylococcus aureus ME/GM/TC resistant [3] | Actual Bioactivity [3] | further results |
| --- | --- | --- | --- | --- | --- | --- | --- | --- | --- | --- | --- | --- | --- | --- | --- | --- | --- | --- | --- | --- | --- |
| CC(C)C[C@H](NC(=O)[C@@H](N)CCCCN)C(=O)N1Cc2ccccc2CC1C(=O)N1C(C(=O)NCC(=O)N[C@@H](CCCCN)C(=O)N2Cc3ccccc3CC2C(=O)N2C(C(=O)NCC(=O)N[C@@H](Cc3ccccc3)C(=O)N3Cc4ccccc4CC3C(=O)N3C(C(=O)NCC(=O)N[C@@H](CCCCN)C(=O)N4Cc5ccccc5CC4C(=O)N[C@@H](CCCCN)C(=O)N[C@@H](CCCCN)C(=O)N[C@@H](CCCCN)C(=O)N[C@@H](CCCCN)C(N)=O)CC4CCCCC43)CC3CCCCC32)CC2CCCCC21 (stereo partly drawn) [FKAB-1Gb, NH2--KL-Tic-Oic-GK-Tic-Oic-GF-Tic-Oic-GK-Tic-KKKK-CONH2] (H-KL[ξTic][ξOic]GK[ξTic][ξOic]GF[ξTic][ξOic]GK[ξTic]KKKK-NH2) | no observed toxicity | 0.003 (≈ 0.00731 mg/mL) | 0.03 (≈ 0.0731 mg/mL) | 30 | 0.003 (≈ 0.00731 mg/mL) | 0.001 (≈ 0.00244 mg/mL) | 43.6 | 24.9 | 98 | 86 | 87 | 99 | 81 | 84 | 84 |  |  |  |  |  | Minimum Inhibitory Concentration Mycobacterium ranae ([4]; ATCC 110): 3 µM; remaining at 1 h, 1 μM (in vitro [8]): 97%; remaining at 1 h, 1 μM (in vitro [10]): 91%; remaining at 0.25 h, 1 μM (in vitro [11]): 87%; remaining at 0.5 h, 1 μM (in vitro [11]): 73%; remaining at 1 h, 1 μM (in vitro [11]): 70% |
| CC(=O)NCC(=O)N1Cc2ccccc2CC1C(=O)N1C(C(=O)N[C@@H](CCCCN)C(=O)N2Cc3ccccc3CC2C(=O)N2C(C(=O)NCC(=O)N3Cc4ccccc4CC3C(=O)N3C(C(=O)N[C@@H](CCCCN)C(=O)N4Cc5ccccc5CC4C(=O)N[C@@H](CCCCN)C(=O)N[C@@H](CCCCN)C(=O)N[C@@H](CCCCN)C(=O)N[C@@H](CCCCN)C(N)=O)CC4CCCCC43)CC3CCCCC32)CC2CCCCC21 (stereo partly drawn) [FKAB-1Ge, Ac-G-Tic-Oic-K-Tic-Oic-G-Tic-Oic-K-Tic-KKKK-CONH2] (Ac-G[ξTic][ξOic]K[ξTic][ξOic]G[ξTic][ξOic]K[ξTic]KKKK-NH2) | no observed toxicity | 0.01 (≈ 0.0203 mg/mL) | 0.01 (≈ 0.0203 mg/mL) | 10 | 0.003 (≈ 0.0061 mg/mL) | 0.001 (≈ 0.00203 mg/mL) | 26.7 | 9.2 | 114 | 56 | 73 | 43 | 54 | 69 | 73 |  |  |  |  |  | remaining at 1 h, 1 μM (in vitro [10]): 95%; remaining at 0.25 h, 1 μM (in vitro [11]): 85%; remaining at 0.5 h, 1 μM (in vitro [11]): 20%; remaining at 1 h, 1 μM (in vitro [11]): 11% |
| CC(C)C[C@H](NC(=O)CNC(=O)[C@H](CCCCN)NC(=O)CN)C(=O)N1Cc2ccccc2C[C@H]1C(=O)N1[C@H](C(=O)NCC(=O)N[C@@H](CCCNC(=N)N)C(=O)N2Cc3ccccc3C[C@H]2C(=O)N2[C@H](C(=O)NCC(=O)N[C@@H](Cc3ccccc3)C(=O)N3Cc4ccccc4C[C@H]3C(=O)N3[C@H](C(=O)NCC(=O)N[C@@H](CCCNC(=N)N)C(=O)N4Cc5ccccc5C[C@H]4C(=O)N4[C@H](C(=O)NCC(=O)N[C@@H](Cc5ccccc5)C(=O)N5Cc6ccccc6C[C@H]5C(=O)N5[C@H](C(=O)NCC(=O)N[C@@H](CCCNC(=N)N)C(=O)N6Cc7ccccc7C[C@H]6C(=O)N6[C@H](C(=O)NCC(=O)N[C@@H](CCCCN)C(=O)N[C@@H](CCCNC(=N)N)C(N)=O)C[C@@H]7CCCC[C@@H]76)C[C@@H]6CCCC[C@@H]65)C[C@@H]5CCCC[C@@H]54)C[C@@H]4CCCC[C@@H]43)C[C@@H]3CCCC[C@@H]32)C[C@@H]2CCCC[C@@H]21 [WRFK-2, NH2-GKGL-Tic-Oic-GR-Tic-Oic-GF-Tic-Oic-GR-Tic-Oic-GF-Tic-Oic-GR-Tic-Oic-GKR-CONH2] (H-GKGL[Tic][Oic]GR[Tic][Oic]GF[Tic][Oic]GR[Tic][Oic]GF[Tic][Oic]GR[Tic][Oic]GKR-NH2) |  | 0.1 (≈ 0.362 mg/mL) | 0.01 (≈ 0.0362 mg/mL) | 10 |  | 0.001 (≈ 0.00362 mg/mL) |  |  |  |  |  |  |  |  |  | 6.9 (≈ 1.9 µM) | 7.2 (≈ 1.99 µM) | 4.00 | 5.00 | 5.000 | Actual Bioactivity [4]: 0.000; MIC Mycobacterium ranae [4]: 1000 mM (≈ 3620 mg/mL); Minimum Inhibitory Concentration Mycobacterium ranae [4]: not active; p(MIC) Bacillus Subtillis [5]: 6.00; % hemolysis / Hemolytic activity (red blood cells [14]): 100% |
| CC(C)C[C@H](NC(=O)CNC(=O)[C@H](CCCCN)NC(=O)CN)C(=O)N1Cc2ccccc2C[C@H]1C(=O)N1[C@H](C(=O)NCC(=O)N[C@@H](CCCCN)C(=O)N2Cc3ccccc3C[C@H]2C(=O)N2[C@H](C(=O)NCC(=O)N[C@@H](CC(C)C)C(=O)N3Cc4ccccc4C[C@H]3C(=O)N3[C@H](C(=O)NCC(=O)N[C@@H](CCCCN)C(=O)N4Cc5ccccc5C[C@H]4C(=O)N4[C@H](C(=O)NCC(=O)N[C@@H](CC(C)C)C(=O)N5Cc6ccccc6C[C@H]5C(=O)N5[C@H](C(=O)NCC(=O)N[C@@H](CCCCN)C(=O)N6Cc7ccccc7C[C@H]6C(=O)N6[C@H](C(=O)NCC(=O)N[C@@H](CCCCN)C(=O)N[C@@H](CCCNC(=N)N)C(N)=O)C[C@@H]7CCCC[C@@H]76)C[C@@H]6CCCC[C@@H]65)C[C@@H]5CCCC[C@@H]54)C[C@@H]4CCCC[C@@H]43)C[C@@H]3CCCC[C@@H]32)C[C@@H]2CCCC[C@@H]21 [WRFK-4, NH2-GKGL-Tic-Oic-GK-Tic-Oic-GL-Tic-Oic-GK-Tic-Oic-GL-Tic-Oic-GK-Tic-Oic-GKR-CONH2] (H-GKGL[Tic][Oic]GK[Tic][Oic]GL[Tic][Oic]GK[Tic][Oic]GL[Tic][Oic]GK[Tic][Oic]GKR-NH2) |  | 0.1 (≈ 0.347 mg/mL) |  |  |  |  |  |  |  |  |  |  |  |  |  | 6.5 (≈ 1.87 µM) | 7.8 (≈ 2.25 µM) | 4.00 | 5.00 | 5.000 | % hemolysis / Hemolytic activity (red blood cells [14]): 100% |
| CC(C)C[C@H](NC(=O)CNC(=O)[C@H](CCCCN)NC(=O)CN)C(=O)N1Cc2ccccc2C[C@H]1C(=O)N1[C@H](C(=O)N[C@@H](Cc2ccccc2)C(=O)N[C@@H](CCCCN)C(=O)N2Cc3ccccc3C[C@H]2C(=O)N2[C@H](C(=O)N[C@@H](CCCCN)C(=O)N[C@@H](Cc3ccccc3)C(=O)N3Cc4ccccc4C[C@H]3C(=O)N3[C@H](C(=O)N[C@@H](Cc4ccccc4)C(=O)N[C@@H](CCCCN)C(=O)N4Cc5ccccc5C[C@H]4C(=O)N4[C@H](C(=O)N[C@@H](CCCCN)C(=O)N[C@@H](Cc5ccccc5)C(=O)N5Cc6ccccc6C[C@H]5C(=O)N5[C@H](C(=O)N[C@@H](Cc6ccccc6)C(=O)N[C@@H](CCCCN)C(=O)N6Cc7ccccc7C[C@H]6C(=O)N6[C@H](C(=O)N[C@@H](Cc7ccccc7)C(=O)N[C@@H](CCCCN)C(=O)N[C@@H](CCCNC(=N)N)C(N)=O)C[C@@H]7CCCC[C@@H]76)C[C@@H]6CCCC[C@@H]65)C[C@@H]5CCCC[C@@H]54)C[C@@H]4CCCC[C@@H]43)C[C@@H]3CCCC[C@@H]32)C[C@@H]2CCCC[C@@H]21 [WRFK-5, NH2-GKGL-Tic-Oic-FK-Tic-Oic-KF-Tic-Oic-FK-Tic-Oic-KF-Tic-Oic-FK-Tic-Oic-FKR-CONH2] (H-GKGL[Tic][Oic]FK[Tic][Oic]KF[Tic][Oic]FK[Tic][Oic]KF[Tic][Oic]FK[Tic][Oic]FKR-NH2) |  | 0.1 (≈ 0.404 mg/mL) | 0.03 (≈ 0.121 mg/mL) | 30 |  | 0.003 (≈ 0.0121 mg/mL) |  |  |  |  |  |  |  |  |  | 4.2 (≈ 1.04 µM) | 3.9 (≈ 0.965 µM) | 4.00 | 4.52 | 4.520 | Actual Bioactivity [4]: 0.000; MIC Mycobacterium ranae [4]: 1000 mM (≈ 4040 mg/mL); Minimum Inhibitory Concentration Mycobacterium ranae [4]: not active; p(MIC) Bacillus Subtillis [5]: 5.52; % hemolysis 100/25 μM (first value) (red blood cells [6]; 100 μM): 100% |
